According to publication PMC6395927, “Rufomycin Targets ClpC1 Proteolysis in Mycobacterium tuberculosis and M. abscessus” (Antimicrobial Agents and Chemotherapy, 2019):
In brackets after ≈: the same amount, converted by molar mass. Read-outs that look alike come from different tables or passages of the source.

Key:
[1] = system: M. abscessus (ATCC 19977); experiment: microbe, parasite or virus in culture; format: cell-based, Mycobacterium abscessus; details: read-out: MIC
[2] = system: M. bovis (ATCC 35734); experiment: microbe, parasite or virus in culture; format: cell-based; details: Mycobacterium tuberculosis variant bovis, ATCC35734
[3] = system: Candida albicans (ATCC 10231); experiment: MIC against nonmycobacteria (OD570); format: cell-based; details: ATCC10231, C. albicans
Source text: (§1) Standard compounds used were ampicillin (AMP) and gentamicin (GEN). […] Amphotericin B (AmphB) and ketoconazole (KETO) were used as standard compounds.

[4] = system: Staphylococcus aureus (ATCC 29213); experiment: MIC against nonmycobacteria (OD570); format: cell-based; details: ATCC29213, S. aureus
Source text: as §1

[5] = system: Escherichia coli (ATCC 25922); experiment: MIC against nonmycobacteria (OD570); format: cell-based; details: ATCC25922, E. coli
Source text: as §1

[6] = system: M. avium (ATCC 15769); experiment: microbe, parasite or virus in culture; format: cell-based; details: Mycobacterium avium, ATCC15769; M. avium; read-out: MIC
[7] = system: M. tuberculosis strain H37Rv (ATCC 27294); experiment: microbe, parasite or virus in culture; format: cell-based, Mycobacterium tuberculosis; details: Mycobacterium tuberculosis
[8] = system: Vero cell (ATCC CRL-81); experiment: cells; format: cell-based; details: Chlorocebus sabaeus, 72 h

In the case of `C/C=C/C[C@@H]1NC(=O)[C@H](CC(C)C)N2C(=O)C(C[C@H](C)[C@H]2O)N(C)C(=O)[C@H](C)NC(=O)[C@H](Cc2ccc(O)c([N+](=O)[O-])c2)NC(=O)[C@H](CC(C)C)N(C)C(=O)[C@H](Cc2cn(C(C)(C)C3CO3)c3ccccc23)NC1=O` (stereo partly shown) [RUFI, rufomycin I], the MIC ([1]; M. abscessus) is reported as 0.42 µM (≈ 0.438 µg/mL), the MIC ([1]; Mycobacteroides abscessus, ATCC19977, M. abscessus) is reported as 0.4 µM (≈ 0.417 µg/mL) and the MIC [2] is reported as under 0.02 µM. For the same compound, the MIC [3] was over 10 µM, the MIC [4] was over 10 µM and the MIC [5] was over 10 µM. It also gave an MIC [6] of 1.75 µM (≈ 1.82 µg/mL), an MIC [7] of 0.02 µM (≈ 0.0208 µg/mL) and an MIC ([7]; read-out: MIC against M. tuberculosis) of 0.01 µM (≈ 0.0104 µg/mL). It also gave an IC50 [8] of over 50 µM.
